Data from ChEMBL document CHEMBL5236548, “Marine Natural Products: A Potential Source of Anti-hepatocellular Carcinoma Drugs” (J Med Chem, 2021).
Each block holds one compound with its values, some of them ahead of it.

Experiments:
SMMC-7721 [1] = assay: Antitumor activity against human SMMC-7721 cells xenografted in mouse assessed as reduction in tumor volume at 20 mg/kg administered once every two days for 21 days relative to control; type: functional; set-up: scale not given: the % may be the effect or the level left; settings: time 21 day
SMMC-7721 [2] = assay: Antiproliferative activity against human SMMC-7721 cells measured after 48 hrs; type: functional, cell-based; settings: SMMC-7721, 48 h
HepG2 [3] = assay: Anticancer activity against human HepG2 cells by SRB assay; type: functional, cell-based
HepG2 [4] = assay: Anticancer activity against human HepG2 cells by MTT assay; type: functional, cell-based
Hep 3B2 = assay: Cytotoxicity against human Hep3B cells; type: functional, cell-based
Huh-7 = assay: Cytotoxicity against human Huh-7 cells; type: functional, cell-based
HepG2 [5] = assay: Antiproliferative activity against doxorubicin resistant human HepG2 cells at 50 uM incubated for 24 hrs by MTT assay relative to control; type: functional
HepG2 [6] = assay: Antiproliferative activity against doxorubicin sensitive human HepG2 cells assessed as decrease in cell proliferation at 50 uM incubated for 24 hrs by MTT assay relative to control; type: functional; set-up: scale not given: the % may be the effect or the level left
HepG2 [7] = assay: Cytotoxicity against human HepG2 cells incubated for 48 hrs by MTT assay; type: functional, cell-based; settings: HepG2, 48 h
Bel-7402 = assay: Growth inhibition of human Bel-7402 cells; type: functional, cell-based
HepG2 [8] = assay: Cytotoxicity against human HepG2 cells measured after 3 days by MTT assay; type: functional, cell-based; settings: HepG2, 72 h
HepG2 [9] = assay: Antiproliferative activity against human HepG2 cells incubated for 72 hrs by MTT assay; type: functional, cell-based; settings: HepG2, 72 h
[10] = Cytotoxicity against human HepG3 cells measured after 3 days by MTT assay; type: functional, cell-based; settings: HepG3, 72 h
HepG2 [11] = assay: Cytotoxicity against human HepG2 cells by MTT assay; type: functional, cell-based
HepG2 [12] = assay: Antiproliferative activity against human HepG2 cells assessed as cell growth inhibition by SRB method; type: functional
SK-HEP1 = assay: Antiproliferative activity against human SK-HEP1 cells assessed as cell growth inhibition by SRB method; type: functional
HepG2 [13] = assay: Antimigratory activity against human HepG2 cells assessed as reduction in cell migration by cell migration assay; type: functional, cell-based

IC50 (SMMC-7721 [2]): 19 µM
Compound: C[C@@]12C[C@@H](O)C[C@]3(C)C4=CC(=O)OCC4=C[C@@H](OC1=O)C23 (some centres not stated)
Activity (SMMC-7721 [1]): 86.4%

IC50 (HepG2 [3]): 17.2 µM
Compound: CC1=CC[C@@H]2[C@@H](CC[C@@]2(C)O)C(C)(C)[C@H]1CC[C@@H]1[C@@]2(C)CC[C@@H](O)C(C)(C)O[C@@H]2CC[C@]1(C)O

Compound: CCCCCC1=C/C(=C\c2[nH]c(-c3ccc[nH]3)cc2OC)N=C1C
IC50 (HepG2 [4]): 0.04 µM

Compound: COc1cc(O)c2c(c1O)C(=O)C1=C(C2=O)C(O)C(O)C(C)(O)C1 (configuration not stated)
IC50 (Hep 3B2): 3.2 µM | IC50 (Huh-7): 9.6 µM

Compound: C/C=C1/C(=C\c2[nH]c(/C=C3N=C(/C=C4/NC(=O)C(CC)=C4C)C(C)=C/3CCC(=O)O)c(CCC(=O)O)c2C)NC(=O)C1C (configuration not stated)
Activity (HepG2 [5]): 50% | Activity (HepG2 [6]): 40%

Compound: C#CCNC1=CC(=O)c2c(O)c3c(c(O)c2C1=O)C[C@](C)(O)[C@H](O)C3
IC50 (HepG2 [7]): 10.1 µM

Compound: CCCCSC1=C(SCCCC)C(=O)c2c(O)c3c(c(O)c2C1=O)C[C@@H](O)[C@@](C)(O)C3
IC50 (HepG2 [7]): 5.04 µM

Compound: C[C@]1(O)Cc2c(O)c3c(c(O)c2C[C@H]1O)C(=O)C=C(NCc1ccc(F)cc1)C3=O
IC50 (HepG2 [7]): 11.2 µM

IC50 (Bel-7402): 15.9 µM
Compound: Oc1cc(Br)c(Cc2cc(O)c(O)cc2Br)cc1O

Compound: C=C(CC[C@@H](C)[C@H]1[C@@H](O)C[C@H]2[C@@H]3CC=C4C[C@@H](O)CC[C@]4(C)[C@H]3[C@H](O)C[C@]12C)C(C)C
IC50 (HepG2 [8]): 14.9 µM

Compound: COc1ccc2[nH]c([C@@H]3C4C5CCC([C@H](C)CCCC(C)C)[C@@]5(C)CCC4[C@@]4(C)CC[C@H](O)C[C@@]34O)nc2c1 (some centres not stated)
IC50 (HepG2 [9]): 8.4 µM

Compound: C=C(CC[C@@H](C)[C@H]1[C@@H](O)C[C@H]2[C@@H]3CC=C4C[C@@H](O[C@@H]5O[C@@H](C)[C@@H](OC(C)=O)[C@@H](O)[C@@H]5O)CC[C@]4(C)[C@H]3[C@H](O)C[C@]12C)C(C)C
IC50 [10]: 18.9 µM | IC50 (HepG2 [8]): 17.6 µM

Compound: C/C=C(\N=C=S)C(=O)O[C@H]1[C@@H](OC(C)=O)[C@@H](O)[C@H]([C@@]2(O)CC(=O)C(N)=C(C(=O)O)C2=O)O[C@@H]1C
IC50 (HepG2 [11]): 4.3 µM

Compound: COC1=CC[C@@H]([C@@H](C)/C=C(C)/C=C\C=C/C(=O)N[C@H](C(=O)N/C=C\C[C@H](C/C=C(\C)Cl)OC(N)=O)C(C)(C)C)OC1=O
GI50 (HepG2 [12]): 0.000752 µM | GI50 (SK-HEP1): 0.000278 µM

Compound: COC1=CC(=O)c2c(O)c3c(c(O)c2C1=O)C[C@]1(C)OCO[C@@H]1C3
IC50 (HepG2 [7]): 12.8 µM

Compound: CC(=O)O[C@H]1CC[C@]2(C)C3CC[C@@]4(C)C(CCC4[C@H](C)CCCC(C)C)C3[C@@H](c3nc4ccccc4[nH]3)[C@]2(O)C1 (some centres not stated)
IC50 (HepG2 [9]): 4.2 µM

Compound: CC[C@H]1C=CCC[C@@]2(C[C@@H]3CC[C@]4(O)[C@H](C(=O)OCCCCCCCCCCCCCCCC(=O)N(CCCN)C[C@@H](O)CCN)[C@]5(CCC[C@@H](C)O5)NC(=N2)N34)O1
IC50 (HepG2 [13]): 0.18 µM
